Measurements reported in patent EP3906926A1, “PROLINE HYDROXYLASE INHIBITORS FOR USE IN THE SKELETAL MUSCLE REGENERATION” (Policlinico San Donato S.p.A.- Istituto di Ricovero e Cura …, priority 2020, dated 2021).

What was measured:
VEGF = test: qPCR of HIF-1α target gene VEGF; format: cell-based, murine; details: IOX2 or FG-4592 treatment, vs untreated controls
Procedure: (§1) Total RNA was isolated using ReliaPrep™ RNA Miniprep Systems (Promega), and reverse transcribed to cDNA using the iScript cDNA synthesis kit (BioRad), according to the Manufacturer's instructions. Real-Time Quantitative PCR was performed on 10 ng of cDNA template, 0.2 µM primers, and GoTaq® qPCR Master Mix (Promega) in 20 µl final volume using a StepOnePlus® Real-Time PCR System (Applied Biosystem). […] RPL13 was used as the housekeeping gene. The amplification program consisted in an initial denaturation at 95°C for 3 minutes, followed by 40 cycles of 5 seconds each at 95°C and 30 seconds at 57°C; WNT7a was amplified at 53°C. Relative quantification of target genes was performed in triplicate and calculated by the equation 2^-ΔΔCt.
as §1, with “ReliaPrepTM” for “ReliaPrep™”, “2-ΔΔCt.” for “2^-ΔΔCt.”

MyoD [1] = test: Western blot of MyoD nuclear localization; format: cell-based, murine; details: IOX2 or FG-4592 for 24 hours
Procedure: (§2) For nuclei separation, 5 x 10^6 cells were collected after enzymatic digestion with trypsin (Merck), centrifuged at the maximum speed, resuspended in 400 µl of Buffer A (10 mM KCl, 0.1 mM EDTA, 1 mM DTT, 10 mM Hepes, pH 7.9), containing protease and phosphatase inhibitors cocktail (Merck), and incubated on ice for 20 minutes. Then, 10% NP40 was added to the cell suspension, mixed for 40 seconds, and centrifuged 40 seconds at the maximum speed. After centrifugation, the pellet was resuspended in 80 µl of Buffer C (0.4M NaCl, 1 mM EDTA, 1 mM DTT, 20 mM Hepes, pH 7.9), containing a protease and phosphatase inhibitors cocktail, and then mixed for 30 minutes at 4°C at the maximum speed. Finally, the nuclear suspension was centrifuged for 5 minutes at 4°C at the maximum speed, collected and transferred in a new tube. The total protein content was determined with the BCA Protein Assay Kit (Pierce), according to the manufacturer's instructions.
(§3) Proteins were denaturated by boiling for 10 minutes in sample buffer (0.6 g/100 mL Tris, 2 g/100 mL SDS, 10% glycerol, 1% 2-mercaptoethanol, pH 6.8) and loaded into 10% SDS-PAGE gel, then transferred onto a nitrocellulose membrane (Trans-blot, Bio-Rad Laboratories) by electroblotting. Nitrocellulose membranes were incubated with a blocking solution containing 5% (w/v) non-fat dry milk or 5% (w/v) BSA (Merck) in Tris-buffer saline with 0.1% Tween® 20 (TBS-T) for 1 hour. […] Membranes were washed three times for 10 minutes with TBS-T, and then incubated with the appropriate anti-mouse, anti-rabbit, or anti-goat HRP-conjugated secondary antibodies (Dako, Agilent Technologies), 1:2000 dilution, for 1 hour at room temperature. After three washes for 10 minutes with TBS-T, the immunoreactive bands were visualized using the enhanced chemiluminescence detection kit reagents (ECL Advance, GeHealthcare), according to the manufacturer's instructions.
as §2, with “For total proteins extraction, 7.5 x 10^4 cells were seeded and harvested at 7th days of skeletal muscle differentiation, as previously described. Cells were collected after enzymatic digestion with trypsin (Merck), lysed by sonication and centrifuged at 800 xg for 10 minutes. Supernatant was used to determine total protein content with the BCA Protein Assay Kit (Pierce), according to the manufacturer's instructions. For” for “For”, “(0.4 M” for “(0.4M”

Myogenin = test: qPCR of Myogenin during differentiation; format: cell-based, murine; details: day 3 of differentiation, IOX2 or FG-4592 pre-treated myoblasts
Procedure: as §1
as §1, with “ReliaPrepTM” for “ReliaPrep™”, “2-ΔΔCt.” for “2^-ΔΔCt.”

MHC [2] = test: qPCR of MHC during differentiation; format: cell-based, murine; details: day 7 of differentiation, IOX2 or FG-4592 pre-treated myoblasts
Procedure: as §1
as §1, with “ReliaPrepTM” for “ReliaPrep™”, “2-ΔΔCt.” for “2^-ΔΔCt.”

MyoD [3] = test: Western blot of MyoD nuclear localization in WNT7a-KO versus wild type myoblasts; format: cell-based, murine; details: WNT7a-KO vs wild type cells, after 24 h inhibitor pre-treatment
Procedure: as §2
Proteins were denaturated by boiling for 10 minutes in sample buffer (0.6 g/100 mL Tris, 2 g/100 mL SDS, 10% glycerol, 1% 2-mercaptoethanol, pH 6.8) and loaded into 10% SDS-PAGE gel, then transferred onto a nitrocellulose membrane (Trans-blot, Bio-Rad Laboratories) by electroblotting. […]
(§4) Therefore, WNT7a silencing was conducted by Crispr/Cas9 genome editing in C2C12 murine myoblasts and the effects on myogenesis were evaluated.

MHC [4] = test: Western blot of MHC in WNT7a-KO versus wild type myoblasts at end of differentiation; format: cell-based, murine; details: WNT7a-KO vs wild type cells, inhibitor pre-treated
Procedure: Cells were collected after enzymatic digestion with trypsin (Merck), lysed by sonication and centrifuged at 800 xg for 10 minutes. Supernatant was used to determine total protein content with the BCA Protein Assay Kit (Pierce), according to the manufacturer's instructions.
as §3, §4

C57Bl/6N mice = test: Cardiotoxin-induced muscle regeneration in mice; format: in vivo; details: single i.p. injection 10 mg/kg one day before CTX injury; 7 days after injury; laminin staining; vs saline
Procedure: Experiments on muscle regeneration were conducted on 8-10 weeks old male C57Bl/6N mice, matched for weight, and purchased from Charles River Laboratories (Calco, Italy).
Cardiotoxin (CTX, from Naja mossambica, Latoxan, Portes-les-Valence, France, http://www.latoxan.net/) was dissolved in sterile saline to a final concentration of 10 µM. Mice were anesthetized by isofluorane inhalation and hindlimbs were shaved and cleaned with alcohol. Tibialis anterior (TA) muscles were injected with 45 µl of CTX with a 30-gauge needle, with 15 micro-injections of 3 µl CTX each in the mid-belly of the muscle to induce a homogeneous damage. The TA muscles of the contralateral hindlimbs were injected with a saline solution.
DMSO, diluted at 2% in saline solution, was inoculated by i.p. injection to control mice. […] Mice were sacrificed seven days after cardiotoxin treatment.
Briefly, TA muscles were frozen in liquid nitrogen-cooled isopentane and mounted in Killik embedding medium (Bio-optica). Transverse muscle sections (7 µm) were cryosectioned from the midbelly of each muscle. Sections were stained with Hematoxylin (Bio-optica)/Eosin (Merck) to reveal general muscle architecture. […] Images were acquired using Axio Lab.A1 (Zeiss) and quantified with ImageJ v1.49o software.

C2C12 murine myoblasts = test: CellTox Cytotoxicity Assay; details: at IC50 concentrations (50 µM IOX2, 40 µM FG-4592), 24 hours, vs untreated controls
Procedure: To assess PHDs inhibitors cytotoxicity, 5 x 10^3 C2C12 murine myoblasts were seeded in a 96-well plate.

PHDs = test: ODD-luciferase reporter assay (Dual-Glo) for PHDs inhibition; details: C2C12 myoblasts transfected with ODD-luciferase-pcDNA3; 24 hours at 10, 25, 50, 100 µM, normoxic conditions; linear regression
Procedure: The IC50 was calculated using a Dual-Glo® Luciferase Assay System kit (Promega) that allows a high-throughput analysis of mammalian cells containing the Firefly (Luciferase-pcDNA3, ODD-Luciferase-pcDNA3) and Renilla (pRL-CMV) luciferase reporters. Briefly, 5 x 10^3 cells per well were seeded in a 96-well plate, and then transfected for 24 hours with a Luciferase-pcDNA3 or an ODD-Luciferase-pcDNA3 (80 ng), containing the firefly gene reporter. A co-transfection with pRL-CMV (8 ng), containing the renilla gene reporter, was performed as an internal control, according to the ViaFect Transfection Reagent® protocol (Promega). After transfection, cells were treated with 10, 25, 50, and 100 µM IOX2 or FG-4592 (R oxadustat) for 24 hours, and then an equal volume of Dual-Glo® Luciferase Reagent was added to each well, incubated at room temperature for 30 minutes, and then analyzed with a Varioskan™ LUX Multimode Microplate Reader (ThermoFisher Scientific). Then, an equal volume of Dual-Glo® Stop & Glo® Reagent was added to each well in order to quench the luminescence from the firefly reaction and to provide the substrate for the renilla luciferase. The mixture was incubated for 30 minutes before analysis. The IC50 values were calculated by linear regression.
To this purpose, the IC50 of both compounds was determined by transiently co-transfecting C2C12 myoblasts with the ODD-luciferase-pcDNA3 plasmid, containing the Oxygen Dependent Domain (ODD) of HIF-1α, and with the pRL-CMV plasmid, as the internal control (Figure 4, panel A). Then, transfected cells were treated for 24 hours with IOX2 or FG-4592 at different concentrations (10, 25, 50, and 100 µM) under normoxic conditions, and the emitted luminescence was collated to untreated controls.
The EC50 was calculated using a Dual-Glo® Luciferase Assay System kit (Promega) that allows a high-throughput analysis of mammalian cells containing the Firefly (Luciferase-pcDNA3, ODD-Luciferase-pcDNA3) and Renilla (pRL-CMV) luciferase reporters. Briefly, 5 x 10^3 cells per well were seeded in a 96-well plate, and then transfected for 24 hours with a Luciferase-pcDNA3 or an ODD-Luciferase-pcDNA3 (80 ng), containing the firefly gene reporter. A co-transfection with pRL-CMV (8 ng), containing the renilla gene reporter, was performed as an internal control, according to the ViaFect Transfection Reagent® protocol (Promega). […] Then, an equal volume of Dual-Glo® Stop & Glo® Reagent was added to each well in order to quench the luminescence from the firefly reaction and to provide the substrate for the renilla luciferase. The mixture was incubated for 30 minutes before analysis. The EC50 values were calculated by linear regression.
The EC50 of each compound was determined by transiently co-transfecting C2C12 myoblasts with the ODD-luciferase-pcDNA3 plasmid, containing the Oxygen Dependent Domain (ODD) of HIF-1α, and with the pRL-CMV plasmid, as the internal control (Figure 12, panel A).

Q: Which results are given for `Cc1nc(C(=O)NCC(=O)O)c(O)c2ccc(Oc3ccccc3)cc12` [FG-4592, Roxadustat]?
A: increase in the expression of VEGF (VEGF): 2.1 fold; increase of the nuclear localization of MyoD (MyoD [1]): 1.5 fold; increase of Myogenin (Myogenin): 1.4 fold; enhancement of MHC (MHC [2]): 2.3 fold; decrease of MyoD nuclear localization (MyoD [3]): 42%; decrease of MHC expression (MHC [4]): 36%; enhancement of cross-sectional area (CSA) of regenerating myofibers (C57Bl/6N mice): 25%; increase of minimal Feret diameter of regenerating myofibers (C57Bl/6N mice): 8%; Cell toxicity (C2C12 murine myoblasts): no significant changes; IC50 (PHDs): 40 µM

Q: What does the source list for `O=C(O)CNC(=O)c1c(O)c2ccccc2n(Cc2ccccc2)c1=O` [IOX2]?
A: increase in the expression of VEGF (VEGF): 1.6 fold; increase of the nuclear localization of MyoD (MyoD [1]): 1.6 fold; increase of Myogenin (Myogenin): 2.0 fold; enhancement of MHC (MHC [2]): 2.2 fold; decrease of MyoD nuclear localization (MyoD [3]): no significant changes; decrease of MHC expression (MHC [4]): 18%; Cell toxicity (C2C12 murine myoblasts): no significant changes; IC50 (PHDs): 50 µM
